# Legend:
# NOD mice [1] = experiment: Treatment of new onset diabetic NOD mice with Gleevec (remission of diabetes, blood glucose); format: in vivo, mouse
# Method: NOD mice were treated by gavage (oral) daily (M-F) with 50 mg/kg of commercially-available Gleevec suspended in peanut oil. Treatment was initiated at the time of disease onset (blood sugars above 250 mg/dl) and continued for the duration of the experiment.
# (§1) Further studies were carried out to determine if Gleevec could be discontinued and maintain its efficacy. New onset mice were treated as above for only 3 weeks after onset and examined for disease recurrence (FIG. 1B). […] of mice (7/8) went into remission during the 3 weeks of therapy. For the majority of mice, remission was short lived as 5/8 mice (FIG. 1B, solid circles) became hyperglycemic within 1-2 weeks after cessation of drug therapy. However, 3/8 mice (FIG. 1B, open circles) remained in remission more than 6 weeks after the last dose of Gleevec. […] Ten week old NOD mice were treated daily with Gleevec ([…]) or peanut oil and followed for disease incidence. None of the Gleevec-treated and 50% of the peanut oil-treated mice were diabetic at 18 weeks of age.
# Diabetic NOD mice (250-350 mg/dL) were treated with Gleevec for a short course (3 weeks) or longer courses (8-10 weeks) daily 3 times per week (3×/wk); and blood glucose assessed as described in Example 2. […] The majority of the daily, 8-10 week-treated group remained normal glycemic for >2 months after ending therapy. Peanut oil treatment had no effect in reversing diabetes.
# In another dosing regimen, NOD mice were treated with Gleevec (100 mg/kg) by daily oral gavage Monday through Friday for 2 weeks, followed by daily Gleevec (100 mg/kg) via oral gavage three times per week for 6 weeks. Four of 5 mice went into disease remission.
# NOD mice [2] = experiment: Gleevec prevention studies in pre-diabetic NOD mice (diabetes incidence by blood glucose); format: in vivo, mouse
# Method: as §1
# Pre-diabetic NOD mice were treated with Gleevec for 7 weeks starting at 12 weeks of age. The Gleevec was emulsified in peanut oil and given by gavage (100 mg/kg) daily. Control animals were treated with peanut oil alone. Mice were tested for diabetes based on blood glucose. Mice with two consecutive glucose readings of greater than 250 mg/dl were considered diabetic.
# [3] = test system: NOD mice injected with cyclophosphamide (CY); experiment: Cyclophosphamide model: diabetes incidence in CY-injected NOD mice; format: in vivo; conditions: 14.5 week-old NOD mice, CY 300 mg/kg i.p., Gleevec 1.5 mg/mouse/day oral for 7 weeks; FIG. 3
# Method: 14.5 week-old NOD mice were injected intraperitoneally (i.p.) with cyclophosphamide (CY) (300 mg/kg) in conjunction with daily oral Gleevec therapy or control peanut oil. Gleevec treatment (1.5 mg/mouse/day) lasted 7 weeks. Mice were tested for diabetes based on blood glucose. Mice with two consecutive glucose readings of greater than 250 mg/dl were considered diabetic.
# [4] = 100 mg/kg oral gavage daily Monday-Friday for 2 weeks, then 100 mg/kg three times per week for 6 weeks
# [5] = new onset mice, 50 mg/kg oral daily for only 3 weeks after onset, FIG. 1B
compound,measurement,setting,value
CS(=O)(=O)O.Cc1ccc(NC(=O)c2ccc(CN3CCN(C)CC3)cc2)cc1Nc1nccc(-c2cccnc2)n1 [Gleevec],mice going into remission,"NOD mice [1]; 50 mg/kg oral gavage daily (M-F) in peanut oil, started at disease onset (blood sugars above 250 mg/dl), continued for duration of experiment, FIG. 1A",All of the treated mice went into remission
same,relapse during the course of the study,"NOD mice [1]; 50 mg/kg oral gavage daily (M-F), continuous treatment from onset, FIG. 1A",none relapsed
same,mice that maintained normoglycemia for the duration of the experiment (>30 weeks after onset),NOD mice [1]; [4],Three of the 5
same,mice that went into disease remission (number of total),NOD mice [1]; [4],Four of 5
same,mice that remained in remission more than 6 weeks after the last dose (number/total),"NOD mice [1]; 3-week treatment, FIG. 1B open circles",3/8
same,mice that became hyperglycemic within 1-2 weeks after cessation of drug therapy (number/total),"NOD mice [1]; 3-week treatment, FIG. 1B solid circles",5/8
same,blood glucose levels maintained in treated mice,NOD mice [1]; NOD mice treated with Gleevec after onset,approximately 200 mg/dl
same,time the majority of the group remained normal glycemic after ending therapy,"NOD mice [1]; daily, 8-10 week-treated group",> 2 months
same,reversal of diabetes,"NOD mice [1]; diabetic NOD mice (250-350 mg/dL), all treatments: 3 weeks or 8-10 weeks, daily or 3x/wk",effective in reversing diabetes in the majority of mice
same,mice that went into remission during the 3 weeks of therapy (number/total),NOD mice [1]; [5],7/8
same,percent of mice that went into remission during the 3 weeks of therapy,NOD mice [1]; [5],Greater than 90%
same,long term maintenance (>20 week) of normoglycemia,NOD mice [1]; short course 3 weeks versus long course 8-10 weeks,less evident in short term 3 week treatment) than long term 8-10 week treated mice
same,percent of mice in which diabetes was prevented,"NOD mice [2]; pre-diabetic NOD mice, 100 mg/kg gavage daily for 7 weeks starting at 12 weeks of age, diabetic = two consecutive glucose readings >250 mg/dl, FIG. 2",90%
same,mice diabetic at 18 weeks of age,"NOD mice [2]; ten week old NOD mice treated daily (50 mg/ml as printed), preliminary experiments",None
same,incidence of diabetes versus peanut oil-treated CY-treated control,[3],significantly reduced
